Assay in all cases: microbe, parasite or virus in culture
Common to all, as to type: cell-based

The subject of one assay is HIV-1MDR/G (X4). The note with it: for IC50: Human immunodeficiency virus 1, read-out: IC50 against HIV-1MDR/G (X4). How it is done:
(§1) Drug susceptibility assay. The susceptibility of HIV-1LAI, HIV-2EHO, HIV-2ROD, to various drugs and the cytotoxicity of those drugs was determined by using the MTT assay. Briefly, MT-2 cells (2×10^4/mL) were exposed to 100 TCID50s (50% tissue culture infectious doses) of HIV-1LAI, HIV-2EHO, or HIV-2ROD in the presence or absence of various concentrations of drugs in 96-well microculture plates and were incubated at 37° C. for 7 days. After 100 μL of the medium was removed from each well, 3-(4,5-dimethylthiazol-2-yl)-2,5-diphenyltetrazolium bromide (MTT) solution (10 μL, 7.5 mg/mL in phosphate-buffered saline) was added to each well in the plate, followed by incubation at 37° C. for 4 hours. […] All assays were performed in duplicate or triplicate. To determine the sensitivity of HIV-1Ba-L, HIV-1ERS104 pre, and clinical multi-drug-resistant HIV-1 isolates and different subtypes of HIV-1 isolates to drugs, phytohemagglutinin-activated peripheral blood mononuclear cells (PHA-PBMs; 10^6/mL) were exposed to 50 TCID50 (50% tissue infectious dose) of each HIV-1 isolate and cultured in the presence or absence of various concentrations of drugs in 10-fold serial dilutions in 96-well microtiter culture plates. To determine the drug susceptibility of certain laboratory HIV-1 strains (HIV-1NL4-3), MT-4 cells were used as target cells. MT-4 cells (10^5/mL) were exposed to 100 TCID50 of wild type HIV-1NL4-3 and PI-resistant HIV-1NL4-3 in the presence or absence of various concentrations of drugs and were incubated at 37° C. On day 7 of culture, the supernatant was harvested and the amount of p24 Gag protein was determined by using a fully automated chemiluminescent enzyme immunoassay system (Lumipulse F; Fujirebio Inc., Tokyo, Japan) (22). […] All assays were performed in duplicate or triplicate.
(§2) HIV-1ERS104pre served as a source of wild-type HIV-1. The IC50 values were determined by using PHA-PBMs as target cells and the inhibition of p24 Gag protein production by each drug was used as an endpoint.

A further assay concerns HIV-1MDR/C (X4). The note with it: for IC50: Human immunodeficiency virus 1, read-out: IC50 against HIV-1MDR/C (X4). How it is done:
as §1, §2

The test system of another assay is HIV-1MDR/JSL (R5). Conditions: for IC50: Human immunodeficiency virus 1, read-out: IC50 against HIV-1MDR/JSL (R5). How it is done: as §1, §2
The subject of a further assay is HIV-1MDR/TM (X4). The note with it: for IC50: Human immunodeficiency virus 1, read-out: IC50 against HIV-1MDR/TM (X4). How it is done: as §1, §2
In a further assay the test system is HIV-1MDR/B (X4). The note with it: for IC50: Human immunodeficiency virus 1, read-out: IC50 against HIV-1MDR/B (X4). How it is done:
as §1, §2

The next assay concerns HIV-1MDR/MM (R5). The note with it: for IC50: Human immunodeficiency virus 1, read-out: IC50 against HIV-1MDR/MM (R5). How it is done: as §1, §2
The test system of another assay is HIV-1APV5μM. The note with it: for IC50: Human immunodeficiency virus 1, MT4, read-out: IC50 against HIV-1APV5μM. How it is done:
as §1
(§3) Generation of PI-resistant HIV-1 in vitro. MT-4 cells (10^5/mL) were exposed to HIV-1NL4-3 (500 TCID50) and cultured in the presence of various PIs at an initial concentration of its IC50 values. Viral replication was monitored by determination of the amount of p24 Gag produced by MT-4 cells. The culture supernatants were harvested on day 7 and used to infect fresh MT-4 cells for the next round of culture in the presence of increasing concentrations of each drug. […] Proviral DNA samples obtained from the lysates of infected cells were subjected to nucleotide sequencing. This drug selection procedure was carried out until the drug concentration reached 1 or 5 μM.

Another assay has as its system HIV-1IDV5μM. Conditions: for IC50: Human immunodeficiency virus 1, MT4, read-out: IC50 against HIV-1IDV5μM. How it is done: as §1, §3
In another assay the test system is HIV-1ATV1μM. The note with it: for IC50: Human immunodeficiency virus 1, MT4, read-out: IC50 against HIV-1ATV1μM. How it is done: as §1, §3
Another assay relates to HIV-1NFV5μM. Conditions: for IC50: Human immunodeficiency virus 1, MT4, read-out: IC50 against HIV-1NFV5μM. How it is done: as §1, §3
For a further assay, the system named is HIV-1RTV5μM. Conditions: for IC50: Human immunodeficiency virus 1, MT4, read-out: IC50 against HIV-1RTV5μM. How it is done:
as §1, §3

For a further assay, the system named is HIV-1LPV1μM. Conditions: for IC50: Human immunodeficiency virus 1, MT4, read-out: IC50 against HIV-1LPV1μM. How it is done:
as §1, §3

For the next assay, the system named is HIV-1SQV5μM. The note with it: for IC50: Human immunodeficiency virus 1, MT4, read-out: IC50 against HIV-1SQV5μM. How it is done: as §1, §3
Where [1] appears, read: compared to wild-type HIV-1ERS104pre.
[2] abbreviates: compared to wild-type HIV-1NL4-3.

Where only a bound is given, the exact number is not on record here.

`CC(C)CN(C[C@@H](O)[C@H](Cc1ccccc1)NC(=O)O[C@H]1CCOC1)S(=O)(=O)c1ccc(N)cc1` [APV, Amprenavir]: the IC50 with HIV-1MDR/G (X4) turned out to be 0.32 ± 0.02 µM; with HIV-1MDR/C (X4), 0.25 ± 0.05 µM; in the assay with HIV-1MDR/JSL (R5) it was 0.43 ± 0.05 µM; in the assay on HIV-1MDR/TM (X4), 0.3 ± 0.04 µM; in the assay with HIV-1MDR/B (X4), 0.36 ± 0.09 µM; in the assay on HIV-1MDR/MM (R5), 0.48 ± 0.09 µM. Moreover, the IC50 in the assay on HIV-1APV5μM is above 1 µM; with HIV-1IDV5μM it was 0.17 ± 0.01 µM; in the assay on HIV-1ATV1μM it was 0.2 ± 0.07 µM; in the assay with HIV-1NFV5μM, 0.06 ± 0.004 µM; in the assay with HIV-1RTV5μM, 0.28 ± 0.02 µM; in the assay on HIV-1LPV1μM, 0.31 ± 0.02 µM. Also, in the assay on HIV-1SQV5μM, the IC50 came out at 0.33 ± 0.03 µM.
As to `COC(=O)N[C@H](C(=O)N[C@@H](Cc1ccccc1)[C@@H](O)CN(Cc1ccc(-c2ccccn2)cc1)NC(=O)[C@@H](NC(=O)OC)C(C)(C)C)C(C)(C)C` [ATV, Atazanavir], the IC50 in the assay with HIV-1MDR/G (X4) came to 0.032 ± 0.002 µM; in the assay on HIV-1MDR/C (X4), 0.021 ± 0.006 µM; with HIV-1MDR/JSL (R5), 0.54 ± 0.2 µM; with HIV-1MDR/TM (X4), 0.038 ± 0.009 µM; in the assay with HIV-1MDR/B (X4), 0.25 ± 0.003 µM; in the assay with HIV-1MDR/MM (R5), 0.045 ± 0.0001 µM. The IC50 was determined as 0.003 ± 0.001 µM in the assay on HIV-1APV5μM; 0.06 ± 0.02 µM in the assay on HIV-1IDV5μM; 0.33 µM in the assay with HIV-1ATV1μM; 0.021 ± 0.006 µM with HIV-1NFV5μM; 0.018 ± 0.008 µM with HIV-1RTV5μM; 0.04 ± 0.002 µM in the assay with HIV-1LPV1μM. Also, the IC50 in the assay on HIV-1SQV5μM worked out at 0.326 ± 0.001 µM. In the assay with HIV-1MDR/G (X4) (setting [1]), the “fold change of IC50, HIV-1MDR/G” value is listed as 8. The “fold change of IC50, HIV-1MDR/C” value in the assay on HIV-1MDR/C (X4) (setting [1]) is 6. Also, in the assay with HIV-1MDR/JSL (R5) (setting [1]), the “fold change of IC50, HIV-1MDR/JSL” value worked out at 142. Also, in the assay on HIV-1MDR/TM (X4) (setting [1]), the “fold change of IC50, HIV-1MDR/TM” value came out at 10. In the assay with HIV-1MDR/B (X4) (setting [1]), the “fold change of IC50, HIV-1MDR/B” value is recorded as 66. In addition, the “fold change of IC50, HIV-1MDR/MM” value in the assay on HIV-1MDR/MM (R5) (setting [1]) turned out to be 12. Besides, the “fold change of IC50, HIV-1APV5μM” value in the assay with HIV-1APV5μM (setting [2]) came out at 1. The “fold change of IC50, HIV-1IDV5μM” value with HIV-1IDV5μM (setting [2]) was determined as 14. Moreover, in the assay with HIV-1ATV1μM (setting [2]), the “fold change of IC50, HIV-1ATV1μM” value is given as 79. Further, the “fold change of IC50, HIV-1NFV5μM” value with HIV-1NFV5μM (setting [2]) was determined as 5. Moreover, in the assay on HIV-1RTV5μM (setting [2]), the “fold change of IC50, HIV-1RTV5μM” value is given as 4. For the same compound, the “fold change of IC50, HIV-1LPV1μM” value in the assay on HIV-1LPV1μM (setting [2]) came to 10. Further, the “fold change of IC50, HIV-1SQV5μM” value in the assay on HIV-1SQV5μM (setting [2]) was 78.

These data come from patent US9808527B2, “Methods and compositions for treating HIV infections” (priority 2006, dated 2017).
